Patent US9533952B2, “N-prop-2-ynyl carboxamide derivatives and their use as TRPA1 antagonists” (Orion Corporation, priority 2012, dated 2017)

Target: TRPA1 (Homo sapiens, UniProt O75762)
Experiment: Determination of TRPA1 activity in vitro (TRPA1 antagonism in vitro)
Type: cell-based
Conditions: procedure of Wei et al., Anesthesiology 111 (2009) 147-154

Chain of TRPA1 (O75762 whole entry): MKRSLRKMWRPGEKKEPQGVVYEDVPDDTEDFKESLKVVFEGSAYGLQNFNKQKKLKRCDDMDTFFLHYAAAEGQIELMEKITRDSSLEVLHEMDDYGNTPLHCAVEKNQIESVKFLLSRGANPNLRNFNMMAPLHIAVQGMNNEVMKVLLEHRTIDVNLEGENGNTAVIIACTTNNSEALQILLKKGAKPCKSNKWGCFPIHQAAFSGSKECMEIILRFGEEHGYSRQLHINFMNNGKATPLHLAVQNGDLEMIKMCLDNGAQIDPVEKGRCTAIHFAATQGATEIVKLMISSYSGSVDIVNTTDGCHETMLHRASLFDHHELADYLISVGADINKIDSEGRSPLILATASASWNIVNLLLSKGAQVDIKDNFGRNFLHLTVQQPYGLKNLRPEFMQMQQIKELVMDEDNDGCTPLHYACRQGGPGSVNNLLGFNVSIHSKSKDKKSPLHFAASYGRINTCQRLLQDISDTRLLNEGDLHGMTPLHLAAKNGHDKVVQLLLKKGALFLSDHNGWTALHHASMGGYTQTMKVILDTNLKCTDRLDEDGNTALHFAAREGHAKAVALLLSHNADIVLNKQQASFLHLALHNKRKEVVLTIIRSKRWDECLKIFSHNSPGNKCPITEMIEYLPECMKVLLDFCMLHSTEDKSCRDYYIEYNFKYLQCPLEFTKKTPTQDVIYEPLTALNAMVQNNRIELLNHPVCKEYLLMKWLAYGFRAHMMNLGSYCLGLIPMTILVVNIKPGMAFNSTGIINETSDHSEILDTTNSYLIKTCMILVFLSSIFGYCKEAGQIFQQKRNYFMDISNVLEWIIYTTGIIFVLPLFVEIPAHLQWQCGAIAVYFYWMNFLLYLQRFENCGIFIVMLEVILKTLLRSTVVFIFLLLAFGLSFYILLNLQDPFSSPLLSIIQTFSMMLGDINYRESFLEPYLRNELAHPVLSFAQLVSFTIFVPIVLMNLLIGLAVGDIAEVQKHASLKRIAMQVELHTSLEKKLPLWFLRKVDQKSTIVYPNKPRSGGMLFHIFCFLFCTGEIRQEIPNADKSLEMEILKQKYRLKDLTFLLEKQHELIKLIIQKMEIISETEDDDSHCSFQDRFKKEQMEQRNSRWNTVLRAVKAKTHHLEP

Row | Compound | IC50
1 | 5-Bromo-2-(ethylamino)-N-(2-methylbut-3-yn-2-yl)nicotinanilide [Example 153] | 10400 nM
2 | 5-Chloro-N-(2-methylbut-3-yn-yl)-2-(2,2,2-trifluoroethylamino)-nicotinamide [Example 34] | 500 nM
3 | C#CC(C)(C)NC(=O)c1cc(F)cnc1NCCC(F)(F)F [Example 1, 5-Fluoro-N-(2-methylbut-3-yn-2-yl)-2-(3,3,3-trifluoropropylamino)-nicotinamide] | 1900 nM
4 | C#CC(C)(C)NC(=O)c1cc(C(F)(F)F)cnc1NCCC(F)(F)F [Example 2, N-(2-Methylbut-3-yn-2-yl)-5-(trifluoromethyl)-2-(3,3,3-trifluoropropylamino) nicotinamide] | 300 nM
5 | C#CC(C)(C)NC(=O)c1cc2c(cc1NCC(C)C)OCO2 [Example 7, 6-(Isobutylamino)-N-(2-methylbut-3-yn-2-yl)benzo[d][1,3]dioxole-5-carboxamide] | 2900 nM
6 | C#CC(C)(C)NC(=O)c1cc2c(cc1NCC(C)C)OCCCO2 [Example 8, 8-(Isobutylamino)-N-(2-methylbut-3 yn-2-yl)-3,4-dihydro-2H-benzo[b][1,4]dioxepine-7-carboxamide] | 13000 nM
7 | C#CC(C)(C)NC(=O)c1cc2c(cc1NCC(C)C)OCCO2 [Example 9, 7-(Isobutylamino)-N-(2-methylbut-3-yn-2-yl)-2,3-dihydrobenzo[b][1,4]dioxine-6-carboxamide] | 11200 nM
8 | C#CC(C)(C)NC(=O)c1cc(C(F)(F)F)ccc1NCC(F)F [Example 10, 2-(2,2-Difluoroethylamino)-N-(2-methylbut-3yn-2-yl)-5-(trifluoromethyl)benzamide] | 1500 nM
9 | C#CC(C)(C)NC(=O)c1cnc(C(F)(F)F)nc1NCCC(F)(F)F [Example 11, N-(2-Methylbut-3-yn-2-yl)-2-(trifluoromethyl)-4-(3,3,3-trifluoropropylamino)pyrimidine-5-carboxamide] | 3700 nM
10 | C#CC(C)(C)NC(=O)c1ccc(Cl)cc1NCCC [Example 13, 4-Chloro-N-(2-methylbut-3-yn-2-yl)-2-(propylamino)benzamide] | 800 nM
11 | C#CC(C)(C)NC(=O)c1cccc(F)c1NC1CCC1 [Example 21, 2-(Cyclobutylamino)-3-fluoro-N-(2-methylbut-3-yin-2-yl)benzamide] | 5200 nM
12 | C#CC(C)(C)NC(=O)c1cc(F)ccc1NC1CCC1 [Example 24, 2-(Cyclobutylamino)-5-fluoro-N-(2-methylbut-3-yn-2-yl)benzamide] | 1300 nM
13 | C#CC(C)(C)NC(=O)c1cc(Cl)cnc1NC(C)C [Example 26, 5-Chloro-2-(isopropylamino)-N-(2-methylbut-3-yn-2-yl)-nicotinamide] | 3300 nM
14 | C#CC(C)(C)NC(=O)c1cc(Cl)cnc1NC1CCC1 [Example 27, 5-Chloro-2-(cyclobutylamino)-N-(2-methylbut-3-yn-2-yl)nicotinamide] | 700 nM
15 | C#CC(C)(C)NC(=O)c1cc(F)cnc1NCC(F)(F)C(F)(F)F [Example 29, 5-Fluoro-N-(2-methylbut-3-yn-2-yl)-2-(2,2,3,3-pentafluoropropyl-amino)nicotinamide] | 400 nM
16 | C#CC(C)(C)NC(=O)c1cc(F)ccc1NCC(F)(F)C(F)(F)F [Example 31, 5-Fluoro-N-(2-methylbut-3-yn-2-yl)-2-(2,2,3,3,3-pentafluoropropylamino) benzamide] | 2600 nM
17 | C#CC(C)(C)NC(=O)c1cc(C(F)(F)F)cnc1NCC(F)(F)F [Example 35, N-(2-Methylbut-3-yn-2-yl)-2-(2,2,2-trifluoroethylamino)-5-(trifluoromethyl)nicotinamide] | 500 nM
18 | C#CC(C)(C)NC(=O)c1ccc(C#N)cc1NC1CCC1 [Example 37, 4-Cyano-2-(cydclobutylamino)-N-(2-methylbut-3-yn-2-yl)benzamide] | 3200 nM
19 | C#CC(C)(C)NC(=O)c1cc(C(F)(F)F)ccc1NCC(F)(F)F [Example 39, N-(2-Methylbut-3-yn-2-yl)-2-(2,2,2-trifluoroethylamino)-5-(trifluoromethyl) benzamide] | 600 nM
20 | C#CC(C)(C)NC(=O)c1cc(F)c(F)cc1NCCCC [Example 42, 2-(Butylamino)-4,5-difluoro-N-(2-methylbut-3-yn-2-yl)benzamide] | 500 nM
21 | C#CC(CC)(CC)NC(=O)c1cc(Br)ccc1NCCOC [Example 43, 5-Bromo-(3-ethylpent-1-yn-3yl)-2-(2-methoxyethylamino)-benzamide] | 1000 nM
22 | C#CC(CC)(CC)NC(=O)c1cc(Cl)ccc1NCCOC [Example 44, 5-Chloro-N-(3-ethylpent-1-yn-3yl)-2-(2-methoxyethylamino)-benzamide] | 1300 nM
23 | C#CC(CC)(CC)NC(=O)c1cc(F)c(F)cc1NCCOC [Example 45, N-(3-Ethylpent-1-yn-3-yl)-4,5-difluoro-2-(2-methoxyethylamino)-benzamide] | 2000 nM
24 | C#CC(CC)(CC)NC(=O)c1cc(C(F)(F)F)ccc1NCCOC [Example 46, N-(3-Ethylpent-1-yn-3-yl)-2-(2-methoxyethylamino)-5-(trifluoro-methyl)benzamide] | 500 nM

Further compounds by falling IC50, results first:

Row | IC50 | Compound
25 | 11800 nM | C#CC(C)(C)NC(=O)c1cc2c(cc1NCCC(F)(F)F)OCCO2 [Example 6, N-(2-Methylbut-3-yn-2-yl)-7-(3,3,3-trifluoropropylamino)-2,3-dihydrobenzo[b][1,4]dioxine-6-carboxamide]
26 | 10800 nM | C#CC(C)(C)NC(=O)c1cccc(F)c1NCCC [Example 16, 3-Fluoro-N-(2-methylbut-3-yn-2-yl)-2-(propylamino)benzamide]
27 | 7200 nM | C#CC(C)(C)NC(=O)c1cc(F)ccc1NCC(F)(F)F [Example 22, 5-Fluoro-N-(2-methylbut-3-yn-2-yl)-2-(2,2,2-trifluoroethylamino)-benzamide]
28 | 5100 nM | C#CC(C)(C)NC(=O)c1cc(Cl)ccc1NCC(F)F [Example 5, 5-Chloro-2-(2,2-difluoroethylamino)-N-(2-methylbut-3-yn-2-yl)benzamide]
29 | 4700 nM | C#CC(C)(C)NC(=O)c1cc(Cl)ccc1NC(C)C [Example 4, 5-Chloro-2-(isopropylamino)-N-(2-methylbut-3-yn-2-yl)benzamide]
30 | 4200 nM | C#CC(C)(C)NC(=O)c1cc(C#N)ccc1NC1CCC1 [Example 36, 5-Cyano-2-(cyclobutylamino)-N-(2-methylbut-3-yn-2-yl)benzamide]
31 | 3800 nM | C#CC(C)(C)NC(=O)c1cc(Cl)cnc1NCC(F)F [Example 32, 5-Chloro-2-(2,2-difluoroethylamino)-N-(2-methylbut-3-yn-2-yl)nicotinamide]
32 | 3000 nM | C#CC(C)(C)NC(=O)c1cccc(F)c1NCCC(F)(F)F [Example 15, 3-Fluoro-N-(2-methylbut-3-yn-2-yl)-2-(3,3,3-trifluoropropylamino)-benzamide]
33 | 3000 nM | C#CC(C)(C)NC(=O)c1cc(F)cnc1NC1CCC1 [Example 25, 2-(Cyclobutylamino)-5-fluoro-N-(2-methylbut-3-yn-2-yl)nicotinamide]
34 | 3000 nM | C#CC(C)(C)NC(=O)c1cc(F)cnc1NCC(F)(F)F [Example 33, 5-Fluoro-N-(2-methylbut-3-yn-2-yl)-2-(2,2,2-trifluoroethylamino)-nicotinamide]
35 | 2900 nM | C#CC(C)(C)NC(=O)c1cc(C)ccc1NCC(F)(F)F [Example 40, 5-Methyl-N-(2-methylbut-3-yn-2-yl)-2-(2,2,2-trifluoroethylamino)-benzamide]
36 | 2500 nM | C#CC(C)(C)NC(=O)c1cc(F)c(F)cc1NCC(F)(F)F [Example 38, 4,5-Difluoro-N-(2-methylbut-3-yn-2-yl)-2-(2,2,2-trifluoroethylamino)-benzamide]
37 | 1400 nM | C#CC(C)(CC)NC(=O)c1cc(F)cnc1NCC(F)F (centres unmarked) [Example 20, 2-(2,2-Difluoroethylamino)-5-fluoro-N-(3-methylpent-1-yn-3-yl)nicotinamide]
38 | 1200 nM | C#CC(C)(C)NC(=O)c1cc(Cl)ccc1NCC(F)(F)F [Example 14, 5-Chloro-N-(2-methylbut-3-yn-2-yl)-2-(2,2,2-trifluoroethylamino)-benzamide]
39 | 1200 nM | C#CC(C)(C)NC(=O)c1cc(F)c(F)cc1NC1CCC1 [Example 17, 2-(Cyclobutylamino)-4,5-difluoro-N-(2-methylbut-3-yn-2-yl)benzamide]
40 | 1200 nM | C#CC(C)(C)NC(=O)c1cc(C(F)(F)F)cnc1NC(C)C [Example 28, 2-(Isopropylamino)-N-(2-methylbut-3-yn-2-yl)-5-(trifluoromethyl)-nicotinamide]
41 | 1100 nM | C#CC(C)(C)NC(=O)c1cc(Cl)ccc1NCCC [Example 3, 5-Chloro-N-(2-methylbut-3-yn-2-ylbut-3)-2-(propylamino)benzamide]
42 | 500 nM | C#CC(C)(C)NC(=O)c1cc(C(F)(F)F)ccc1NCCC(F)(F)F [Example 12, N-(2-Methylbut-3-yn-2-yl)-5-(trifluoromethyl)-2-(3,33-trifluoropropylamino) benzamide]
43 | 500 nM | C#CC(C)(C)NC(=O)c1ccccc1NCC(F)(F)C(F)(F)F [Example 19, N-(2-Methylbut-3-yn-2-yl)-2-(2,2,3,3,3-pentafluoropropylamino)-benzamide]
44 | 500 nM | C#CC(C)(C)NC(=O)c1cc(Cl)cnc1NCCC(F)(F)F [Example 41, 5-Chloro-N-(2-methylbut-3yn-2-yl)-2-(3,3,3-trifluoropropylamino)-nicotinamide]
45 | 300 nM | C#CC(C)(C)NC(=O)c1cc(C(F)(F)F)ccc1NCC(F)(F)C(F)(F)F [Example 18, N-(2-Methylbut-3-yn-2-yl)-2-(2,2,3,3,3-pentafluoropropylamino)-5-(trifluoromethyl)benzamide]
46 | 300 nM | C#CC(C)(C)NC(=O)c1cc(C)ccc1NCC(F)(F)C(F)(F)F [Example 30, 5-Methyl-N-(2-methylbut-3-yn-2-yl)-2-(2,2,3,3,3-pentafluoropropyl-amino)benzamide]
47 | 100 nM | C#CC(C)(C)NC(=O)c1cc(C(F)(F)F)ccc1NC1CCC1 [Example 23, 2-(Cyclobutylamino)-N-(2-methylbut-3-yn-2-yl)-5-(trifluoromethyl)-benzamide]
